Measurements published in patent publication US6344351B2, “(R)-transaminase from arthrobacter” (Kaneka Corporation, priority 1995, dated 2002).

Tests used:
[1] = tested on: Arthrobacter species KNK168 strain; experiment: Amino donor test; (R)-DMA formation by cultured cells; type: cell-based
Protocol: The cultured cells were harvested by centrifugation, and the harvested cells were suspended in a reaction mixture (pH 8.5) containing 1% of 1-(3,4-dimethoxyphenyl)-2-propanone, […] of Triton X-100, and 1% of an amino donor shown in Table 2. The components were reacted at 35° C. for 20 hours.

[2] = tested on: (R)-form-specific transaminase of Arthrobacter sp. KNK168; experiment: Reactivity of purified enzyme to carbonyl compounds, (R)-1-phenylethylamine as amino donor; type: biochemical; details: for Relative Activity (%) of carbonyl compounds: purified enzyme, 25 mM carbonyl compound, 25 mM (R)-1-phenylethylamine, pH 8.5, 30° C., 1 to 3 hours, pyruvic acid = 100; for reactivity of carbonyl compound: (R)-1-phenylethylamine as amino donor
Protocol: Using the purified enzyme obtained in Example 9, reactivities to various carbonyl compounds using (R)-1-phenylethylamine as an amino donor were evaluated. 50 μl of a solution of the purified enzyme was added to 200 μl of a substrate solution (0.1 M Tris-HCl buffer (pH 8.5), 25 mM (R)-1-phenylethylamine, 0.1 mM pyridoxal phosphate, and 25 mM various carbonyl compounds), and the components were reacted at 30° C. for 1 to 3 hours. The reaction tube was transferred into boiling water to stop the reaction, and, thereafter, the reaction mixture was diluted five-folds with methanol. This diluted solution was analyzed by high-performance liquid chromatography using fine pack C18-5 column and using methanol/water (20:80) as an eluent solution to quantitatively analyze acetophenone formed by the reaction.

[3] = tested on: transaminase (intracellular enzyme) of Arthrobacter sp. KNK168; experiment: Activity of the transaminase (intracellular enzyme) against typical substrates of ω-aminotransferases; type: biochemical
[4] = tested on: Arthrobacter species KNK168 strain; experiment: Surfactants and fatty acids as reaction additives; (R)-DMA formation by cells; type: cell-based
Protocol: The cells obtained by culturing the Arthrobacter species KNK168 strain in the R medium were suspended in a reaction mixture containing 2% of 1-(3,4-dimethoxyphenyl)-2-propanone and 4% of (RS)-1-phenylethylamine. The surfactants and fatty acids shown in Table 6 were added thereto, and the mixture was reacted at 30° C. at a pH of 8.5 for 20 hours.

[5] = tested on: (R)-form-specific transaminase of Arthrobacter sp. KNK168; experiment: Reactivity of purified transaminase of present invention to amino compounds, pyruvic acid as amino acceptor; type: biochemical; design: Transaminase of Present Invention (Relative Activity: %), Substrate Specificity: concentration or dose not given beside the values; details: for Relative Activity (%) of amino compounds / Transaminase of Present Invention (Relative Activity: %), Substrate Specificity: purified enzyme; for Relative Activity (%) of amino compounds: 40 mM amino compound in substrate solution, 40 mM pyruvic acid, pH 8.3, 30° C., 1 hour, (R)-1-phenylethylamine = 100; for reactivity of amino compound / Transaminase of Present Invention (Relative Activity: %), Substrate Specificity: pyruvic acid as amino acceptor
Excerpt: The differences with the ω-amino acid transaminase derived from Pseudomonas sp. F-1 (Agric. Biol. Chem., 42, 2363-2367 (1978), Agric. Biol. Chem., 43, 1043-1048 (1979), J. Biol. Chem., 258, 2260-2265 (1983)) which have been well studied among the ω-amino acid transaminases, and with the benzylamine transaminase of Okada et al. (Japanese Patent Laid-Open No. Hei 6-178685) are summarized and shown in Table 2. In a case of the transaminase action in the present invention, the data of the purified enzyme are used, and in cases of those by other two enzymes, the data of the purified enzymes which are disclosed in each of the literature publication and patent publication are used. Pyruvic acid is used as an amino acceptor in all cases.
Using the purified enzyme obtained in Example 9, reactivities to various amino compounds when using pyruvic acid as an amino acceptor were evaluated. 150 μl of a solution of the purified enzyme diluted ten-folds was added to 150 μl of a substrate solution (0.1 M potassium phosphate buffer (pH 8.3), 40 mM pyruvic acid, 0.1 mM pyridoxal phosphate, and 40 mM various amino compounds). The components were reacted at 30° C. for 1 hour. The reaction tube was transferred into boiling water to stop the reaction, and, thereafter, a part of the reaction mixture was diluted five-folds. Ten μl of 0.1 M boric acid buffer (pH 8.0) and 20 μl of an ethanol solution of 80 mM of 4-fluoro-7-nitro-2,1,3-benzoxadiazole (NBD-F) were added to 10 μl of the above-mentioned diluted reaction mixture. The components were reacted at 60° C. for 1 minute, and, thereafter, the reaction mixture was ice-cooled, and 460 μl of 5 mM HCl was added thereto. This reaction mixture was analyzed by high-performance liquid chromatography using fine pack C18-5 column and using a 0.1 M potassium phosphate buffer (pH 6.5) and CH3CN (90:10) as an eluent solution to detect formation of alanine-NBD using excitation wavelength of 470 nm and using detection wave of […]. The results thereof are shown in Table 8 in terms of relative activity in the case of using […] as a substrate.

[6] = biological target: T1, ω-amino acid transaminase derived from Pseudomonas sp. F-1 (Pseudomonas putida, UniProt P28269); design: concentration or dose not given beside the values; details: purified enzyme, literature data; pyruvic acid as amino acceptor; cited from earlier work
T1 sequence (P28269 1-449): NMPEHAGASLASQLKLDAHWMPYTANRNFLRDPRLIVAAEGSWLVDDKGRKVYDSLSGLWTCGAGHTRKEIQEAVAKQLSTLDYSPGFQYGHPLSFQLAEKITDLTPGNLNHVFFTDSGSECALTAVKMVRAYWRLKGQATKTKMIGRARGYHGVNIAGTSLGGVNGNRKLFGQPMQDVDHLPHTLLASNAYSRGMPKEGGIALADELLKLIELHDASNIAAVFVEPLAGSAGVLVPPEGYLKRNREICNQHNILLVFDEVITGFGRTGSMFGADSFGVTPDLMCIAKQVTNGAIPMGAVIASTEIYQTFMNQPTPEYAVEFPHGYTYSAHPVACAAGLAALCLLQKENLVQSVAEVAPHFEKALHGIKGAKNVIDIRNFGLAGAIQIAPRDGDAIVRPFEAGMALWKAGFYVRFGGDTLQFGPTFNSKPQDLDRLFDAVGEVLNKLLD

[7] = 1% amino donor, 1% 1-(3,4-dimethoxyphenyl)-2-propanone, Triton X-100, pH 8.5, 35° C., 20 hours
[8] = amino acceptor pyruvic acid, (R)-1-phenylethylamine control = 100
[9] = additive 0.1%, 2% ketone, 4% (RS)-1-phenylethylamine, 30° C., pH 8.5, 20 hours, no addition 28.1
[10] = additive 0.5%, otherwise as 0.1%
[11] = amino acceptor 2-ketoglutaric acid, (R)-1-phenylethylamine/pyruvic acid control = 100

Compound: CC(N)c1cccc2ccccc12 (racemic) [(RS)-1-Naphthylethylamine]
- (R)-DMA Formed (%), amino group donor [1, 7]: 34.2%

Compound: O=CC(=O)O [Glyoxylic acid]
- Relative Activity (%) of carbonyl compounds [2]: 4%

Compound: CC(CN)c1ccccc1 (racemic) [(RS)-1-Amino-2-phenylpropane]
- (R)-DMA Formed (%), amino group donor ([1]; pH 8.5): 1.8%

Compound: CC(=O)CCc1ccccc1 [Benzyl acetone]
- Relative Activity (%) of carbonyl compounds [2]: 3%

Compound: CCC(=O)C(=O)O [2-Ketobutyric acid]
- Relative Activity (%) of carbonyl compounds [2]: 7%

Compound: NCCC(N)C(=O)O (stereo not drawn) [α-2,4-Diaminobutyric acid]
- Relative Activity (%) as amino donor [3, 8]: 0%

Compound: O=C1CCCc2ccccc21 [1-Tetralone]
- Relative Activity (%) of carbonyl compounds [2]: 1%

Compound: CC(=O)Oc1cccnc1 [3-Acetoxypyridine]
- Relative Activity (%) of carbonyl compounds [2]: 1%

Compound: COc1ccc(CCC(C)=O)cc1 [4-(4-Methoxyphenyl)-2-butanone]
- Relative Activity (%) of carbonyl compounds [2]: 7%

Compound: CCOC(=O)CC(C)=O [Ethyl acetoacetate]
- Relative Activity (%) of carbonyl compounds [2]: 4%

Compound: CCCCCCCC/C=C\CCCCCCCC(=O)O [Oleic Acid]
- effect of additive on rate of reaction [4]: rate of reaction was increased
- (R)-DMA Formed (%), additive ([4]; additive 2.9%): 44.9%

Compound: CCCCCCC(C)N (stereo not shown) [1-Methylheptylamine]
- Relative Activity (%) of amino compounds [5]: 47%

Compound: CCCCCC(C)N (stereo not shown) [2-Heptylamine]
- Relative Activity (%) of amino compounds [5]: 37%

Compound: CC(N)CO (racemic) [(RS)-2-Amino-1-propanol]
- (R)-DMA Formed (%), amino group donor [1, 7]: 9.6%

Compound: CCOC(=O)CC(=O)c1ccccc1 [Ethyl benzoyl acetate]
- Relative Activity (%) of carbonyl compounds [2]: 2%

Compound: CCCCCCCCCCCCOS(=O)(=O)[O-].[Na+] [Sodium dodecyl sulfate]
- effect of additive on rate of reaction [4]: rate of reaction was increased
- (R)-DMA Formed (%), additive [4, 9]: 45.3%
- (R)-DMA Formed (%), additive [4, 10]: 42.2%
- (R)-DMA Formed (%), additive ([4]; additive 1.0%): 46.3%
- (R)-DMA Formed (%), additive ([4]; additive 2.0%): 50.1%
- (R)-DMA Formed (%), additive ([4]; additive 3.0%): 51.9%
- (R)-DMA Formed (%), additive ([4]; additive 4.0%): 53.1%

Compound: CC(N)CCc1ccccc1 (stereo not shown) [3-Aminophenylbutane]
- Relative Activity (%) of amino compounds [5]: 84%
- reactivity of amino compound [5]: favorable reactivities

Compound: NCCS(=O)(=O)O [Taurine]
- Relative Activity (%) as amino donor [3, 11]: 0%

Compound: NC(=O)CCC(N)C(=O)O (racemic) [DL-Glutamine]
- Relative Activity (%) as amino donor [3, 11]: 0%

Compound: CC(=O)C(=O)O [Pyruvic acid]
- Relative Activity (%) of carbonyl compounds [2]: 100%

Compound: CC(=O)c1ccco1 [2-Acetylfuran]
- Relative Activity (%) of carbonyl compounds [2]: 2%

Compound: O=CCc1ccccc1 [Phenyl acetaldehyde]
- Relative Activity (%) of carbonyl compounds [2]: 13%

Compound: CC(=O)C(C)=O [Diacetyl]
- Relative Activity (%) of carbonyl compounds [2]: 10%

Compound: CC(=O)COc1ccccc1 [Phenoxy-2-propanone]
- reactivity of carbonyl compound [2]: favorable reactivities
- Relative Activity (%) of carbonyl compounds [2]: 83%

Compound: N[C@H](CO)c1ccccc1 [(S)-2-Phenylglycinol]
- Relative Activity (%) of amino compounds [5]: 180%
- reactivity of amino compound [5]: favorable reactivities

Compound: CC(=O)c1ccncc1 [4-Acetylpyridine]
- Relative Activity (%) of carbonyl compounds [2]: 27%

Compound: N[C@H](CO)Cc1ccccc1 [L-Phenylalaninol]
- Relative Activity (%) of amino compounds [5]: 0.8%

Compound: O=C(O)CC(=O)C(=O)O [Oxalacetic acid]
- reactivity of carbonyl compound [2]: favorable reactivities
- Relative Activity (%) of carbonyl compounds [2]: 87%

Compound: NC(=O)CC(N)C(=O)O (racemic) [DL-Asparagine]
- Relative Activity (%) as amino donor [3, 11]: 0%

Compound: CC(=O)c1cnccn1 [2-Acetylpyrazine]
- Relative Activity (%) of carbonyl compounds [2]: 17%

Compound: COc1ccc(CC(C)=O)cc1OC [1-(3,4-Dimethoxyphenyl)-2-propanone]
- Relative Activity (%) of carbonyl compounds [2]: 7%

Compound: CCC(C)N (stereo not shown) [1-Methylpropylamine]
- Relative Activity (%) of amino compounds [5]: 1.2%

Compound: Triton X-100
- (R)-DMA Formed (%), additive [4, 9]: 31.6%
- (R)-DMA Formed (%), additive [4, 10]: 34.0%

Compound: COCC(C)=O [1-Methoxy-2-propanone]
- Relative Activity (%) of carbonyl compounds [2]: 16%

Compound: CC(=O)c1nccs1 [2-Acetylthiazole]
- Relative Activity (%) of carbonyl compounds [2]: 10%

Compound: NCCCCC(N)C(=O)O (racemic) [DL-Lysine]
- Relative Activity (%) as amino donor [3, 11]: 0%

Compound: CCCC(C)N (racemic) [(RS)-2-Aminopentane]
- function as amino donor [1]: functioned as amino donors

Compound: CCCCC/C=C\C/C=C\CCCCCCCC(=O)O [Linoleic Acid]
- effect of additive on rate of reaction [4]: rate of reaction was increased
- (R)-DMA Formed (%), additive ([4]; additive 2.9%): 45.1%

Compound: C[C@@H](N)c1ccccc1 [(R)-1-Phenylethylamine]
- Relative Activity (%) of amino compounds [5]: 100%
- activity of the transferase to amino donor [3]: especially high activity
- Relative Activity (%) as amino donor [3, 8]: 100%

Compound: CCCCCCCCCCCCCCCC[N+](C)(C)C.[Br-] [Cetyl trimethyl ammonium bromide (CTAB), Cetyl trimethyl ammonium bromide]
- (R)-DMA Formed (%), additive [4, 9]: 29.1%

Compound: CCC(=O)Cc1ccccc1 [1-Phenyl-2-butanone]
- Relative Activity (%) of carbonyl compounds [2]: 1%

Compound: CC(N)CC(=O)O (racemic) [DL-3-Aminobutyric acid]
- action of the transaminase derived from Arthrobacter on the substrate [5]: does not act
- Transaminase of Present Invention (Relative Activity: %), Substrate Specificity [5]: 0%
- ω-Amino Acid Transaminase (Relative Activity: %), Substrate Specificity [6]: 96%

Compound: 2-Decane
- Relative Activity (%) of carbonyl compounds [2]: 3%

Compound: CC(=O)c1cccs1 [2-Acetylthiophene]
- Relative Activity (%) of carbonyl compounds [2]: 1%

Compound: CCOC(=O)C(C)=O [Ethyl pyruvate]
- Relative Activity (%) of carbonyl compounds [2]: 27%

Compound: CC(=O)c1cccnc1 [3-Acetylpyridine]
- Relative Activity (%) of carbonyl compounds [2]: 8%

Compound: CC(N)c1ccccc1 (racemic) [(RS)-1-phenylmethylamine]
- (R)-DMA Formed (%), amino group donor [1, 7]: 3.1%

Compound: COc1ccc(C[C@@H](C)N)cc1OC [(R)-3,4-Dimethoxyaminopropane]
- Relative Activity (%) of amino compounds [5]: 30%

Compound: NCCCC(=O)O [4-Aminobutyric acid]
- action of the transaminase derived from Arthrobacter on the substrate [5]: does not act
- Transaminase of Present Invention (Relative Activity: %), Substrate Specificity [5]: 0%
- Relative Activity (%) as amino donor [3, 11]: 0%
- ω-Amino Acid Transaminase (Relative Activity: %), Substrate Specificity [6]: 40%

Compound: CC(=O)c1ccccn1 [2-Acetylpyridine]
- Relative Activity (%) of carbonyl compounds [2]: 19%
